# From PubChem BioAssay (NCI)
#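 96-well plates; 48 h exposure; 5 concentrations. Endpoints by linear interpolation between flanking doses. Not reached: highest tested concentration assigned. GI50: concentration for 50% inhibition of growth. Definition used: TGI = concentration required for complete inhibition of growth.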
# Legend:
# Assay in all cases: growth of human tumour cells (NCI), 48 h
# [1] = tested on: U251 CNS
# [2] = tested on: SK-MEL-2 melanoma
# [3] = tested on: ACHN renal
# [4] = tested on: TK-10 renal
# [5] = tested on: HCT-116 colon
# [6] = tested on: KM12 colon
# [7] = tested on: SK-MEL-5 melanoma
# [8] = tested on: A498 renal
# [9] = tested on: NCI-H522 lung
# [10] = tested on: MDA-MB-435
# [11] = tested on: NCI-H23 lung
# [12] = tested on: HT29 colon
# [13] = tested on: NCI-H460 lung
# [14] = tested on: UACC-257 melanoma
# [15] = tested on: RPMI-8226 leukemia
# [16] = tested on: LOX IMVI melanoma
# [17] = tested on: BT-549 breast
# [18] = tested on: SF-295 CNS
# [19] = tested on: HCT-15 colon
# [20] = tested on: MALME-3M melanoma
# [21] = tested on: UACC-62 melanoma
# [22] = tested on: SW-620 colon
# [23] = tested on: A549 NSCLC
# [24] = tested on: IGROV1 ovarian
# [25] = tested on: SNB-19 CNS
# [26] = tested on: UO-31 renal
# [27] = tested on: NCI-H226 lung
# [28] = tested on: OVCAR-5 ovarian
# [29] = tested on: NCI/ADR-RES ovarian
# [30] = tested on: HCC-2998 colon
# [31] = tested on: HOP-92 NSCLC
# [32] = tested on: OVCAR-8 ovarian
# [33] = tested on: MDA-MB-231 breast
# [34] = tested on: M14 melanoma
# [35] = tested on: 786-0 renal
# [36] = tested on: DU-145 prostate
# [37] = tested on: SN12C renal
# [38] = tested on: CCRF-CEM leukemia
# [39] = tested on: MOLT-4 leukemia
# [40] = tested on: SR leukemia
# [41] = tested on: K-562 leukemia
# [42] = tested on: OVCAR-4 ovarian
# [43] = tested on: HOP-62 NSCLC
# [44] = tested on: OVCAR-3 ovarian
# [45] = tested on: PC-3 prostate
# [46] = tested on: COLO 205 colon
# [47] = tested on: HL-60(TB) leukemia
# [48] = tested on: SNB-75 CNS
# [49] = tested on: SK-MEL-28 melanoma
# [50] = tested on: RXF 393 renal
# [51] = tested on: T-47D breast
# [52] = tested on: SF-268 CNS
# [53] = tested on: EKVX NSCLC
# [54] = tested on: MCF7 breast
# [55] = tested on: SK-OV-3 ovarian
# [56] = tested on: CAKI-1 renal
# [57] = tested on: HS 578T breast
# [58] = tested on: SF-539 CNS
structure (smiles),measurement,setting,value
CC/C=C\C[C@H](O)C/C=C1/C(=O)C=C[C@@H]1C/C=C\CCCC(=O)NC(C)C,GI50,[1],2.61 µM
same,TGI,[1],7.08 µM
same,GI50,[2],2.52 µM
same,TGI,[2],6.88 µM
same,GI50,[3],1.84 µM
same,TGI,[3],3.49 µM
same,GI50,[4],3.73 µM
same,TGI,[4],9.64 µM
same,GI50,[5],1.73 µM
same,TGI,[5],3.59 µM
same,GI50,[6],1.91 µM
same,TGI,[6],4.89 µM
same,GI50,[7],1.8 µM
same,TGI,[7],3.35 µM
same,GI50,[8],5.16 µM
same,TGI,[8],16.3 µM
same,GI50,[9],1.59 µM
same,TGI,[9],3.24 µM
same,GI50,[10],2.3 µM
same,TGI,[10],6.51 µM
same,GI50,[11],2.33 µM
same,TGI,[11],6.09 µM
same,GI50,[12],2.23 µM
same,TGI,[12],4.11 µM
same,GI50,[13],2.43 µM
same,TGI,[13],5.79 µM
same,GI50,[14],2.17 µM
same,TGI,[14],6.22 µM
same,GI50,[15],2.73 µM
same,TGI,[15],7.02 µM
same,GI50,[16],1.06 µM
same,TGI,[16],2.5 µM
same,GI50,[17],2.45 µM
same,TGI,[17],6.13 µM
same,GI50,[18],2.42 µM
same,TGI,[18],5.69 µM
same,GI50,[19],2.02 µM
same,TGI,[19],4.92 µM
same,GI50,[20],2.4 µM
same,TGI,[20],6.69 µM
same,GI50,[21],1.77 µM
same,TGI,[21],4.22 µM
same,GI50,[22],3.16 µM
same,TGI,[22],10.8 µM
same,GI50,[23],3.24 µM
same,TGI,[23],9.46 µM
same,GI50,[24],2.94 µM
same,TGI,[24],10 µM
same,GI50,[25],8.75 µM
same,TGI,[25],22.6 µM
same,GI50,[26],1.94 µM
same,TGI,[26],4.11 µM
same,GI50,[27],2.31 µM
same,TGI,[27],4.74 µM
same,GI50,[28],4.55 µM
same,TGI,[28],16.6 µM
same,GI50,[29],3.28 µM
same,TGI,[29],13.6 µM
same,GI50,[30],1.87 µM
same,TGI,[30],3.42 µM
same,GI50,[31],2.75 µM
same,TGI,[31],6.08 µM
same,GI50,[32],3.04 µM
same,TGI,[32],10.7 µM
same,GI50,[33],4.72 µM
same,TGI,[33],16.7 µM
same,GI50,[34],2.87 µM
same,TGI,[34],10 µM
same,GI50,[35],2.47 µM
same,TGI,[35],5.4 µM
same,GI50,[36],3.22 µM
same,TGI,[36],13.5 µM
same,GI50,[37],2.51 µM
same,TGI,[37],6.35 µM
same,GI50,[38],2.09 µM
same,TGI,[38],8.38 µM
same,GI50,[39],2.72 µM
same,TGI,[39],11 µM
same,GI50,[40],2.43 µM
same,TGI,[40],8.33 µM
same,GI50,[41],2.86 µM
same,TGI,[41],38.9 µM
same,GI50,[42],4.27 µM
same,TGI,[42],18.4 µM
same,GI50,[43],2.65 µM
same,TGI,[43],6.59 µM
same,GI50,[44],2.63 µM
same,TGI,[44],8.41 µM
same,GI50,[45],2.52 µM
same,TGI,[45],6.24 µM
same,GI50,[46],2.51 µM
same,TGI,[46],5.44 µM
same,GI50,[47],2.67 µM
same,TGI,[47],9.1 µM
same,GI50,[48],8.2 µM
same,TGI,[48],21 µM
same,GI50,[49],2.14 µM
same,TGI,[49],4.98 µM
same,GI50,[50],2.14 µM
same,TGI,[50],3.94 µM
same,GI50,[51],4.19 µM
same,TGI,[51],19.2 µM
same,GI50,[52],3 µM
same,TGI,[52],13.3 µM
same,GI50,[53],4 µM
same,TGI,[53],15 µM
same,GI50,[54],2.18 µM
same,TGI,[54],13.9 µM
same,GI50,[55],4.57 µM
same,TGI,[55],14.8 µM
same,GI50,[56],2.08 µM
same,TGI,[56],4.39 µM
same,GI50,[57],7.74 µM
same,TGI,[57],49.5 µM
CCn1c(=O)c(-c2ccn[nH]2)cc2c(C)nc(N)nc21,GI50,[1],3.75 µM
same,TGI,[1],> 100 µM
same,GI50,[2],2.25 µM
same,TGI,[2],9.58 µM
same,GI50,[3],1.49 µM
same,TGI,[3],> 100 µM
same,GI50,[4],0.871 µM
same,TGI,[4],4.62 µM
same,GI50,[5],2.36 µM
same,TGI,[5],> 100 µM
same,GI50,[6],3.3 µM
same,TGI,[6],> 100 µM
same,GI50,[7],1.38 µM
same,TGI,[7],6.3 µM
same,GI50,[8],0.209 µM
same,TGI,[8],0.726 µM
same,GI50,[9],1.5 µM
same,TGI,[9],> 100 µM
same,GI50,[10],1.69 µM
same,TGI,[10],> 100 µM
same,GI50,[11],2.07 µM
same,TGI,[11],> 100 µM
same,GI50,[12],1.53 µM
same,TGI,[12],> 100 µM
same,GI50,[13],1.4 µM
same,TGI,[13],> 100 µM
same,GI50,[14],1.38 µM
same,TGI,[14],6.24 µM
same,GI50,[15],0.821 µM
same,TGI,[15],12.3 µM
same,GI50,[16],1.73 µM
same,TGI,[16],14.4 µM
same,GI50,[17],0.225 µM
same,TGI,[17],4.29 µM
same,GI50,[18],0.559 µM
same,TGI,[18],3.68 µM
same,GI50,[19],2.08 µM
same,TGI,[19],> 100 µM
same,GI50,[20],0.167 µM
same,TGI,[20],1.33 µM
same,GI50,[21],0.687 µM
same,TGI,[21],3.54 µM
same,GI50,[22],2.85 µM
same,TGI,[22],> 100 µM
same,GI50,[58],1.77 µM
same,TGI,[58],10.1 µM
same,GI50,[23],1.99 µM
same,TGI,[23],7.41 µM
same,GI50,[24],0.32 µM
same,TGI,[24],2.17 µM
same,GI50,[25],4.57 µM
same,TGI,[25],> 100 µM
same,GI50,[26],0.291 µM
same,TGI,[26],3.72 µM
same,GI50,[27],2.41 µM
same,TGI,[27],> 100 µM
same,GI50,[28],0.539 µM
same,TGI,[28],10.6 µM
same,GI50,[29],1.4 µM
same,TGI,[29],> 100 µM
same,GI50,[30],5.03 µM
same,TGI,[30],> 100 µM
same,GI50,[31],0.213 µM
same,TGI,[31],1.56 µM
same,GI50,[32],2.51 µM
same,TGI,[32],61.7 µM
same,GI50,[33],1.45 µM
same,TGI,[33],12 µM
same,GI50,[34],1.23 µM
same,TGI,[34],30.6 µM
same,GI50,[35],0.511 µM
same,TGI,[35],5.59 µM
same,GI50,[36],2.34 µM
same,TGI,[36],> 100 µM
same,GI50,[37],1.4 µM
same,TGI,[37],> 100 µM
same,GI50,[38],1.68 µM
same,TGI,[38],> 100 µM
same,GI50,[39],0.846 µM
same,TGI,[39],51 µM
same,GI50,[40],1.64 µM
same,TGI,[40],> 100 µM
same,GI50,[41],14.7 µM
same,TGI,[41],> 100 µM
same,GI50,[42],1.25 µM
same,TGI,[42],44 µM
same,GI50,[43],0.575 µM
same,TGI,[43],5.91 µM
same,GI50,[44],1.15 µM
same,TGI,[44],> 100 µM
same,GI50,[45],0.397 µM
same,TGI,[45],> 100 µM
same,GI50,[46],1.78 µM
same,TGI,[46],10.4 µM
same,GI50,[47],2.88 µM
same,TGI,[47],> 100 µM
same,GI50,[48],0.182 µM
same,TGI,[48],2.49 µM
same,GI50,[49],0.97 µM
same,TGI,[49],6.13 µM
same,GI50,[50],0.426 µM
same,TGI,[50],2.47 µM
same,GI50,[51],0.173 µM
same,TGI,[51],0.748 µM
same,GI50,[52],1.53 µM
same,TGI,[52],> 100 µM
same,GI50,[53],0.691 µM
same,TGI,[53],11.1 µM
same,GI50,[54],0.389 µM
same,TGI,[54],> 100 µM
same,GI50,[55],0.698 µM
same,TGI,[55],3.4 µM
same,GI50,[57],0.35 µM
same,TGI,[57],2.38 µM
